Experimental data taken from ChEMBL document CHEMBL3822439, “Discovery of a novel 6,7-disubstituted-4-(2-fluorophenoxy)quinolines bearing 1,2,3-triazole-4-carboxamide moiety as potent c-Met kinase inhibitors” (Eur J Med Chem, 2016).

Legend:
[1] = Cytotoxicity against human MKN45 cells measured after 72 hrs by MTT assay; assay type: functional, cell-based; settings: MKN-45, 72 h
A549 [2] = experiment: Cytotoxicity against human A549 cells measured after 72 hrs by MTT assay; assay type: functional, cell-based; settings: A549, 72 h
[3] = Cytotoxicity against human H460 cells measured after 72 hrs by MTT assay; settings: NCI-H460, 72 h
HT-29 [4] = experiment: Cytotoxicity against human HT-29 cells measured after 72 hrs by MTT assay; settings: HT-29, 72 h
HT-29 [5] = experiment: Potency index, ratio of foretinib IC50 to compound IC50 for human HT-29 cells; assay type: functional
[6] = target: T1, Receptor-type tyrosine-protein kinase FLT3 (Homo sapiens, UniProt P36888); experiment: Inhibition of FLT3 (unknown origin) using poly (Glu, Tyr) 4:1 as substrate incubated for 30 mins by HTRF assay
T1 sequence (P36888 whole entry): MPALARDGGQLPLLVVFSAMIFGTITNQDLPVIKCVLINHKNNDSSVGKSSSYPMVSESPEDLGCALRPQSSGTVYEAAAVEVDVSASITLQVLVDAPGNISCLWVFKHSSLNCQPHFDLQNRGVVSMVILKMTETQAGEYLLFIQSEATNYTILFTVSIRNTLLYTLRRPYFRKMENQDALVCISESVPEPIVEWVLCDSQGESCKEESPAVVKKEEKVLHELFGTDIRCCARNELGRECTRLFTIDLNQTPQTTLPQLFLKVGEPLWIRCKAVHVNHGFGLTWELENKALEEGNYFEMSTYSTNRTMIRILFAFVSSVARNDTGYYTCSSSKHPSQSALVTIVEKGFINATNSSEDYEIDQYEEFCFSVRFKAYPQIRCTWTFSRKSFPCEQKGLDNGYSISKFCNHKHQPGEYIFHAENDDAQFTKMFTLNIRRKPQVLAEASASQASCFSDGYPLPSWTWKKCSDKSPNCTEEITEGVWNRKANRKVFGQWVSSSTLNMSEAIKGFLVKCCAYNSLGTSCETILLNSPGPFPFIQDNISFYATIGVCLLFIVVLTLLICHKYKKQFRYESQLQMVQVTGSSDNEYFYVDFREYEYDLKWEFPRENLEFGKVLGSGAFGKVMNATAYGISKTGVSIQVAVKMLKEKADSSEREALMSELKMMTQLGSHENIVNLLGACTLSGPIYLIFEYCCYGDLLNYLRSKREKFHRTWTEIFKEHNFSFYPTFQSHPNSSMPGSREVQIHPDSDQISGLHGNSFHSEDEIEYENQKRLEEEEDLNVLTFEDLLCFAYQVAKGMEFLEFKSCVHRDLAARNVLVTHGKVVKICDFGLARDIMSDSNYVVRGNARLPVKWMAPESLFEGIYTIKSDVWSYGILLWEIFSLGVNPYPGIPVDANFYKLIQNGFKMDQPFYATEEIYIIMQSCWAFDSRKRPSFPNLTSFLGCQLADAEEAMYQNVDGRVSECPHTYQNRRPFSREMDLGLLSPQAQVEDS

[7] = target: Epidermal growth factor receptor (Homo sapiens, UniProt P00533); experiment: Inhibition of EGFR (unknown origin) using poly (Glu, Tyr) 4:1 as substrate incubated for 30 mins by HTRF assay
Chain of Epidermal growth factor receptor (P00533 whole entry): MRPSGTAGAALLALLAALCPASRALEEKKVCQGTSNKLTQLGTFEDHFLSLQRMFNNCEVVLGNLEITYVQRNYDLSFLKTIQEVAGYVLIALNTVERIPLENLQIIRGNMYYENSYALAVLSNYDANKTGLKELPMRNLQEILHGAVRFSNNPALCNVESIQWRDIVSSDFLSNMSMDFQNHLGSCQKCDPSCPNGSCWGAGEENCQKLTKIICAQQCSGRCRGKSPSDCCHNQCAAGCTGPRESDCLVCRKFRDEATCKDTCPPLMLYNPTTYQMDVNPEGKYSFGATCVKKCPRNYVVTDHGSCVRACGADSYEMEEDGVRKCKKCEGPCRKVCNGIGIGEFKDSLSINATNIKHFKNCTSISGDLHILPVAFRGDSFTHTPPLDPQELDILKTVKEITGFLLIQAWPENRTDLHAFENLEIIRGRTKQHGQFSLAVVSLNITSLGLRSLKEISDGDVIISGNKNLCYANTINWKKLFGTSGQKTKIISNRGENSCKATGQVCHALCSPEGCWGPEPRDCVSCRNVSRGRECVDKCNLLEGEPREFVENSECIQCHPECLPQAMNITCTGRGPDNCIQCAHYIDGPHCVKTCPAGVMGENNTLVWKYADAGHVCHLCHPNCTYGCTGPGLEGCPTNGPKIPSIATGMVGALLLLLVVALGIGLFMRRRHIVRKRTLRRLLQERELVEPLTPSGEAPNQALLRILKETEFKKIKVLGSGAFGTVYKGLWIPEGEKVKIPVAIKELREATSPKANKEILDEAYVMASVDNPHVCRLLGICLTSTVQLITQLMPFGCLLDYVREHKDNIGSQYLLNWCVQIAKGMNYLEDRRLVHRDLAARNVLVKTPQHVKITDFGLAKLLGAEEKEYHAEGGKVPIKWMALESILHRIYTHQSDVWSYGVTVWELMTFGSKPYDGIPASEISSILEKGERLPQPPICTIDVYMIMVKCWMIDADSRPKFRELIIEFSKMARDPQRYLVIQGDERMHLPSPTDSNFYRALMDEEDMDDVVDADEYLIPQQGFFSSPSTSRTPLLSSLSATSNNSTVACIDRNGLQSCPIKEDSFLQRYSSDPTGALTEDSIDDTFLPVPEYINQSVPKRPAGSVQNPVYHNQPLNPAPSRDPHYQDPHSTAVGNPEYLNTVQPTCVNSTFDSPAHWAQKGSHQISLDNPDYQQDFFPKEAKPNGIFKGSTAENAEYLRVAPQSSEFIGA

[8] = target: Hepatocyte growth factor receptor (Homo sapiens, UniProt P08581); experiment: Inhibition of c-Met (unknown origin) using poly (Glu, Tyr) 4:1 as substrate incubated for 30 mins by HTRF assay
Chain of Hepatocyte growth factor receptor (P08581 whole entry): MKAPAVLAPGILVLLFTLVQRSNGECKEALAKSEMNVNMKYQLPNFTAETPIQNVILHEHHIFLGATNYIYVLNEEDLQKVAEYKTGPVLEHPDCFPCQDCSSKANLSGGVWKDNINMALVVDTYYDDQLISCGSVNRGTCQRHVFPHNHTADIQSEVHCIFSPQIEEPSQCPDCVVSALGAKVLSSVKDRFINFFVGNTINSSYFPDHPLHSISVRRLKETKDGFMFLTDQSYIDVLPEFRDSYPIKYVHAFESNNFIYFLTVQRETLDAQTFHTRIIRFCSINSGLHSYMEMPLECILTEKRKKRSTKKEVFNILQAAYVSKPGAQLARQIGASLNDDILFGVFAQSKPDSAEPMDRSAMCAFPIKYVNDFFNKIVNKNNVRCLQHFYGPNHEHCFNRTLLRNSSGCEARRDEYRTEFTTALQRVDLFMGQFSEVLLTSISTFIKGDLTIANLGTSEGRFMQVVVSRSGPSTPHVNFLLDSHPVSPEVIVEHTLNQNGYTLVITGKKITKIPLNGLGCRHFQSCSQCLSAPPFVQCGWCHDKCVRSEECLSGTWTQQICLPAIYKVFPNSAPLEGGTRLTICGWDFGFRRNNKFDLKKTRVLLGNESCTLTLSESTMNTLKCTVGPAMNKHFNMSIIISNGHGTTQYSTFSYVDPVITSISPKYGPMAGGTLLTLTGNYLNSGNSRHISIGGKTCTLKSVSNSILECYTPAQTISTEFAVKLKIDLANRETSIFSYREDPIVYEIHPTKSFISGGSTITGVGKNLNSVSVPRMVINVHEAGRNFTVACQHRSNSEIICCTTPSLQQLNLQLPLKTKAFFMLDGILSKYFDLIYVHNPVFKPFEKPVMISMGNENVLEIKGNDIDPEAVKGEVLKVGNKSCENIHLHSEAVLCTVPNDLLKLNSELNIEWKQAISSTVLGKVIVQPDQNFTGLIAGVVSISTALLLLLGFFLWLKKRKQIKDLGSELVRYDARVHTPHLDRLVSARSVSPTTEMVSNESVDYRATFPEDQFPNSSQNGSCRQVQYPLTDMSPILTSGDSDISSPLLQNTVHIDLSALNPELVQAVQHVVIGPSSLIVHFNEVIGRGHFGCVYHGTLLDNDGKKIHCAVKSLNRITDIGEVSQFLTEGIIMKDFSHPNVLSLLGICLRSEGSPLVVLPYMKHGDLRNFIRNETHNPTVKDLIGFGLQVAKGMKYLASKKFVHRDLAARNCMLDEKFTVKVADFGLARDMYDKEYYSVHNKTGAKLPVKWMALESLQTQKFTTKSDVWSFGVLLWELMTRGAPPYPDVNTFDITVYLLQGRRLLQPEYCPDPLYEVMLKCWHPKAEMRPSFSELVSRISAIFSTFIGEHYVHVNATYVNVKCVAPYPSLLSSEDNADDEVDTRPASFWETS

[9] = target: Macrophage-stimulating protein receptor (Homo sapiens, UniProt Q04912); experiment: Inhibition of Ron (unknown origin) using poly (Glu, Tyr) 4:1 as substrate incubated for 30 mins by HTRF assay
Chain of Macrophage-stimulating protein receptor (Q04912 25-304 limits assumed): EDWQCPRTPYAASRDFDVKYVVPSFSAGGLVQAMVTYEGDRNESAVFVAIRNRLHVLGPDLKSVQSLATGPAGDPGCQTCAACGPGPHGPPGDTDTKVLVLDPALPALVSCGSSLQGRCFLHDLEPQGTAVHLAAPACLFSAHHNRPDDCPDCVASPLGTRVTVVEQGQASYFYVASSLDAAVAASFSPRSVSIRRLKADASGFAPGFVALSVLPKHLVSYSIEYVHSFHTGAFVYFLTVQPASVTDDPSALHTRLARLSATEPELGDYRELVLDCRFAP
Chain of Macrophage-stimulating protein receptor (Q04912 310-1400 limits assumed): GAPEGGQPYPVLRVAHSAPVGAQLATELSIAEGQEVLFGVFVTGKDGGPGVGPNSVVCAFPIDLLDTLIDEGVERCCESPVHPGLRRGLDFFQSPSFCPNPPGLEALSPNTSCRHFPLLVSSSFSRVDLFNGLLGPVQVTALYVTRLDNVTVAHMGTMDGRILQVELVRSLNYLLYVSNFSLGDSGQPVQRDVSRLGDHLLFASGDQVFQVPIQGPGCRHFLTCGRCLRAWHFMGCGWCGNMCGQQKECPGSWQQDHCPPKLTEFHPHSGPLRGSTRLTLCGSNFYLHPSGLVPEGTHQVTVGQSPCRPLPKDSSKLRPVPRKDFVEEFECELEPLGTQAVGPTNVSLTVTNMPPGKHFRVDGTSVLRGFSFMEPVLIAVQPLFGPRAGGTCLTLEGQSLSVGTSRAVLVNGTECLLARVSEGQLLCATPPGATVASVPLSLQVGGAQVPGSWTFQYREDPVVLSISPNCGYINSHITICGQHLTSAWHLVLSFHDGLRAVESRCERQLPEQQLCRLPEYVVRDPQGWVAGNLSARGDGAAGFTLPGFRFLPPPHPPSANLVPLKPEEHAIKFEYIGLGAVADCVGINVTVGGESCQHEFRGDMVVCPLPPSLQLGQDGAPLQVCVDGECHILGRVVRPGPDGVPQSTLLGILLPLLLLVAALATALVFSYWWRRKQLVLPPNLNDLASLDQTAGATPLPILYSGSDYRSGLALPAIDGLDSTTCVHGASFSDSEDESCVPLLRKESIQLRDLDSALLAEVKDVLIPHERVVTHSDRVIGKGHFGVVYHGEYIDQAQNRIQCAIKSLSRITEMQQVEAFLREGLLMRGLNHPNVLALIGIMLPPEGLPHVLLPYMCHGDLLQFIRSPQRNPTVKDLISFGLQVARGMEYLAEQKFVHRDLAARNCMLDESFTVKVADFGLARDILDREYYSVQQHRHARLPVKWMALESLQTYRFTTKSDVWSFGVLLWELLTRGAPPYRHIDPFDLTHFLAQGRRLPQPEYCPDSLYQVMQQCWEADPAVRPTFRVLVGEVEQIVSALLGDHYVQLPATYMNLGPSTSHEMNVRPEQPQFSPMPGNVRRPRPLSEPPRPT

[10] = Potency index, ratio of foretinib IC50 to compound IC50 for human H460 cells; assay type: functional
[11] = target: Mast/stem cell growth factor receptor Kit (Homo sapiens, UniProt P10721); experiment: Inhibition of c-kit (unknown origin) using poly (Glu, Tyr) 4:1 as substrate incubated for 30 mins by HTRF assay
Chain of Mast/stem cell growth factor receptor Kit (P10721 whole entry): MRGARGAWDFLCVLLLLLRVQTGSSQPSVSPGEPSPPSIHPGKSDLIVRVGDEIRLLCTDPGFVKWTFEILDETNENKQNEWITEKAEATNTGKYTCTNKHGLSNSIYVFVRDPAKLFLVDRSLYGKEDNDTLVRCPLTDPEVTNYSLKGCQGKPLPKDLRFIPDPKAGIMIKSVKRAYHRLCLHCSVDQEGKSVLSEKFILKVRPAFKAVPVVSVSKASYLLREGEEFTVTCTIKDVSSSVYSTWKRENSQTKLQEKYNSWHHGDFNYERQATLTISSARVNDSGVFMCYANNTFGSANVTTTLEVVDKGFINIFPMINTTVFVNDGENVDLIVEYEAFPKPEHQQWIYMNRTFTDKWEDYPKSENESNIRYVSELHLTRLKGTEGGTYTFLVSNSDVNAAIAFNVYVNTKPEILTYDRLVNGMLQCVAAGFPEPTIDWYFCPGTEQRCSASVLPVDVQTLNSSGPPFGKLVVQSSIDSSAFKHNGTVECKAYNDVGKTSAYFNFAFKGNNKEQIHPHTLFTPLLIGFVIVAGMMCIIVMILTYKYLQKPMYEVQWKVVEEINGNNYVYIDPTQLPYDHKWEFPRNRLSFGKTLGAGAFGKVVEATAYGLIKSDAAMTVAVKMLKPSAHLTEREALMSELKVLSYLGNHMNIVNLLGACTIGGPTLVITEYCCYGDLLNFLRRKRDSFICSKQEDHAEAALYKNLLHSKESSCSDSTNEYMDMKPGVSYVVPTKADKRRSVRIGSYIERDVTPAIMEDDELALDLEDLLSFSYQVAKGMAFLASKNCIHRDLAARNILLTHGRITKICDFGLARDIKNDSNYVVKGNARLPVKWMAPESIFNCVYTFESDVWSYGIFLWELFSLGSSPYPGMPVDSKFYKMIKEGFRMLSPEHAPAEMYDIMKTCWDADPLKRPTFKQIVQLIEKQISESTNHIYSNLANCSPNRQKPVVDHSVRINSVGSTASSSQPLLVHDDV

[12] = target: Vascular endothelial growth factor receptor 2 (Homo sapiens, UniProt P35968); experiment: Inhibition of VEGFR2 (unknown origin) using poly (Glu, Tyr) 4:1 as substrate incubated for 30 mins by HTRF assay
A549 [13] = experiment: Potency index, ratio of foretinib IC50 to compound IC50 for human A549 cells; assay type: functional
MKN-45 = experiment: Potency index, ratio of foretinib IC50 to compound IC50 for human MKN45 cells; assay type: functional

| SMILES | IC50 [1] [nM] | IC50 (A549 [2]) [nM] | IC50 [3] [nM] | IC50 (HT-29 [4]) [nM] | other results |
| --- | --- | --- | --- | --- | --- |
| COc1cc2c(Oc3ccc(NC(=O)c4cn(-c5ccccc5)nn4)cc3F)ccnc2cc1OCCCN1CCC(C)CC1 | 90 | 140 | 210 | 190 |  |
| COc1cc2c(Oc3ccc(NC(=O)c4cn(-c5c(C)cccc5C)nn4)cc3F)ccnc2cc1OCCCN1CCCCC1 | 2140 |  | 3520 | 3690 |  |
| COc1cc2c(Oc3ccc(NC(=O)c4cn(-c5ccccc5F)nn4)cc3F)ccnc2cc1OCCCN1CCN(C)CC1 | 140 | 250 | 230 | 300 |  |
| COc1cc2c(Oc3ccc(NC(=O)c4cn(-c5ccccc5F)nn4)cc3F)ccnc2cc1OCCCN1CCC(C)CC1 | 130 | 250 | 190 | 210 |  |
| COc1cc2c(Oc3ccc(NC(=O)c4cn(-c5ccc(F)c(F)c5)nn4)cc3F)ccnc2cc1OCCCN1CCN(C)CC1 | 160 | 200 | 250 | 430 |  |
| COc1cc2c(Oc3ccc(NC(=O)c4cn(-c5c(C)cccc5C)nn4)cc3F)ccnc2cc1OCCCN1CCCC1 | 3490 | 1240 | 1560 | 2240 |  |
| COc1cc2c(Oc3ccc(NC(=O)c4cn(-c5ccccc5Cl)nn4)cc3F)ccnc2cc1OCCCN1CCOCC1 | 270 | 530 | 210 | 240 |  |
| COc1cc2c(Oc3ccc(NC(=O)c4cn(-c5c(Cl)cccc5Cl)nn4)cc3F)ccnc2cc1OCCCN1CCOCC1 | 110 |  | 290 | 270 |  |
| COc1cc2c(Oc3ccc(NC(=O)c4cn(-c5c(C)cccc5C)nn4)cc3F)ccnc2cc1OCCCN1CCOCC1 |  |  | 4320 | 6140 |  |
| COc1cc2c(Oc3ccc(NC(=O)c4cn(-c5ccccc5)nn4)cc3F)ccnc2cc1OCCCN1CCOCC1 | 110 | 720 | 450 | 350 |  |
| COc1cc2c(Oc3ccc(NC(=O)c4cn(-c5ccc(Br)cc5)nn4)cc3F)ccnc2cc1OCCCN1CCOCC1 | 90 | 180 | 130 | 260 |  |
| COc1cc2c(Oc3ccc(NC(=O)c4cn(-c5ccccc5F)nn4)cc3F)ccnc2cc1OCCCN1CCCCC1 | 1290 | 2770 | 210 | 290 |  |
| COc1cc2c(Oc3ccc(NC(=O)c4cn(-c5ccc(F)c(F)c5)nn4)cc3F)ccnc2cc1OCCCN1CCCCC1 | 310 | 220 | 250 | 210 |  |
| COc1cc2c(Oc3ccc(NC(=O)c4cn(-c5ccccc5C)nn4)cc3F)ccnc2cc1OCCCN1CCC(C)CC1 |  | 3500 | 2730 | 2380 |  |
| COc1cc2c(Oc3ccc(NC(=O)c4cn(-c5ccccc5C)nn4)cc3F)ccnc2cc1OCCCN1CCCC1 |  | 900 | 1260 | 1200 |  |
| COc1cc2c(Oc3ccc(NC(=O)c4cn(-c5c(C)cccc5C)nn4)cc3F)ccnc2cc1OCCCN1CCC(C)CC1 | 4310 | 3340 | 2360 | 2450 |  |

| SMILES | IC50 [1] [nM] | IC50 (A549 [2]) [nM] | IC50 [3] [nM] | IC50 (HT-29 [4]) [nM] | other results |
| --- | --- | --- | --- | --- | --- |
| COc1cc2c(Oc3ccc(NC(=O)c4cn(-c5ccccc5)nn4)cc3F)ccnc2cc1OCCCN1CCN(C)CC1 | 60 | 160 | 200 | 180 |  |
| COc1cc2c(Oc3ccc(NC(=O)c4cn(-c5ccc(Br)cc5)nn4)cc3F)ccnc2cc1OCCCN1CCCC1 | 120 | 370 | 200 | 190 |  |
| COc1cc2c(Oc3ccc(NC(=O)c4cn(-c5ccccc5Cl)nn4)cc3F)ccnc2cc1OCCCN1CCCCC1 | 30 | 70 | 180 | 100 | Ratio IC50 (HT-29 [5]): 1.9; IC50 [6]: 8.91 nM; IC50 [7]: 529 nM; IC50 [8]: 2.27 nM; IC50 [9]: 346 nM; Ratio IC50 [10]: 1.2; IC50 [11]: 9.36 nM; IC50 [12]: 96.7 nM; Ratio IC50 (A549 [13]): 1.6; Ratio IC50 (MKN-45): 1.1 |
| COc1cc2c(Oc3ccc(NC(=O)c4cn(-c5ccccc5Cl)nn4)cc3F)ccnc2cc1OCCCN1CCN(C)CC1 | 70 | 150 | 290 | 160 |  |
| COc1cc2c(Oc3ccc(NC(=O)c4cn(-c5ccccc5C)nn4)cc3F)ccnc2cc1OCCCN1CCN(C)CC1 |  | 3100 | 3650 | 1430 |  |
| COc1cc2c(Oc3ccc(NC(=O)c4cn(-c5ccccc5Cl)nn4)cc3F)ccnc2cc1OCCCN1CCC(C)CC1 | 240 | 370 | 230 | 130 |  |
| COc1cc2c(Oc3ccc(NC(=O)c4cn(-c5ccc(F)c(F)c5)nn4)cc3F)ccnc2cc1OCCCN1CCC(C)CC1 | 1290 | 1460 | 260 | 810 |  |
| COc1cc2c(Oc3ccc(NC(=O)c4cn(-c5ccccc5)nn4)cc3F)ccnc2cc1OCCCN1CCCCC1 | 100 | 130 | 210 | 180 |  |
| COc1cc2c(Oc3ccc(NC(=O)c4cn(-c5ccccc5Cl)nn4)cc3F)ccnc2cc1OCCCN1CCCC1 | 70 | 330 | 190 | 150 |  |
| COc1cc2c(Oc3ccc(NC(=O)c4cn(-c5c(Cl)cccc5Cl)nn4)cc3F)ccnc2cc1OCCCN1CCCCC1 |  | 150 | 280 | 240 |  |
| COc1cc2c(Oc3ccc(NC(=O)c4cn(-c5ccccc5C)nn4)cc3F)ccnc2cc1OCCCN1CCCCC1 | 3250 | 3230 | 2100 | 1340 |  |
| COc1cc2c(Oc3ccc(NC(=O)c4cn(-c5c(Cl)cccc5Cl)nn4)cc3F)ccnc2cc1OCCCN1CCC(C)CC1 | 120 | 320 | 270 | 1390 |  |
| COc1cc2c(Oc3ccc(NC(=O)c4cn(-c5ccc(Br)cc5)nn4)cc3F)ccnc2cc1OCCCN1CCCCC1 | 150 | 230 | 360 | 260 |  |
| COc1cc2c(Oc3ccc(NC(=O)c4cn(-c5ccccc5)nn4)cc3F)ccnc2cc1OCCCN1CCCC1 | 260 | 360 | 280 | 180 |  |
| COc1cc2c(Oc3ccc(NC(=O)c4cn(-c5c(C)cccc5C)nn4)cc3F)ccnc2cc1OCCCN1CCN(C)CC1 |  | 2180 | 4540 | 2170 |  |
